Tests used:
[1] = tested on: patients with resectable head and neck squamous cell carcinoma (HNSCC); assay type: in vivo, human
Description: PI3Kδ inhibition causes irAEs. To evaluate the potential for PI3Kδ inhibitors as immunotherapeutic agents in human solid cancers, the inventors administered the PI3Kδi AMG319 to treatment-naive patients with resectable head and neck squamous cell carcinoma (HNSCC) in a neoadjuvant, double-blind, placebo-controlled randomized phase II trial. The inventors measured target inhibition (pAKT levels in B cells and drug levels to verify drug administration. Thirty-three patients were randomized in a 2:1 ratio (AMG319:Placebo) to the trial and 30 patients received at least one dose of AMG319 or placebo. Fifteen patients received 400 mg daily of AMG319 (range of 7-24 days per patient). Unexpectedly, at the 400 mg dose, 9/15 patients experienced irAEs that lead to withdrawal of treatment. After a formal safety review, 6 additional patients were recruited and treated at a reduced dose of 300 mg per day. Again, 3/6 patients had irAEs that led to discontinuation of treatment. One patient experienced grade 4 colitis after completion of 24 daily doses of AMG319 and eventually required colectomy (FIG. 4A). The most prevalent irAEs were skin rashes (29%; 25% observed in the treatment group and 4% in placebo group), diarrhea (29%; 28% in observed treatment group and 1% in placebo group) and transaminitis (14% all in the treatment group), consistent with a treatment-mediated loss of TREG cells or TREG cell functionality in multiple tissues causing immunopathology.
Double blind, randomized clinical trial and sample collection. In order to explore the immunomodulatory effects of PI3Kδ inhibition in humans, the inventors conducted a multicenter, placebo-controlled phase II neoadjuvant trial with the PI3Kδi AMG319 in resectable HNSCC, www.clinicaltrialsregister.eu/ctr-search/trial/2014-004388-20/results). All patients have provided written informed consent for participation in the clinical trial. The inventors studied Human Papilloma Virus (HPV)-negative HNSCC, as this cancer type is more prevalent, and because patients with this cancer type have poorer outcomes when compared to HPV-positive HNSCC, likely due to overall lower tumor-infiltrating lymphocyte (TIL) infiltration^31-33. The clinical trial was sponsored by Cancer Research UK Center for Drug Development (CRUKD/15/004) and approved by the Southampton and South West Hampshire Research Ethics Board; the trial EudraCT number is 2014-004388-20. Detailed information about the trial design, randomization procedure, protocol amendments, recruitment data, patient characteristics and adverse events are deposited at www.clinicaltrialsregister.eu/ctr-search/trial/2014-004388-20/results #morelnformationSection and found in the CONSORT checklist. Patients were recruited after initial diagnosis and before definitive surgical treatment; drug treatment or placebo was given for up to 24 or 28 days respectively, prior to resection of tumor. […] The inventors reasoned that high-grade irAEs were unlikely to occur during the shorter treatment duration in the neoadjuvant setting, and therefore selected 400 mg/day as the starting dose. The intended time from initiating treatment with AMG319 or placebo to surgical resection of tumor was up to 4 weeks, with weekly blood draws. The full evaluation of radiological measurements has previously been reported at https://www.clinicaltrialsregister.eu/ctr-search/trial/2014-004388-20/results to the EU Clinical Trials Register in compliance with regulatory requirements. Primary endpoints were safety and assessment of CD8^+ immune infiltrates, secondary endpoints tumor responses and AMG319 pharmacokinetic evaluation (https://www.clinicaltrialsregister.eu/ctr-search/trial/2014-004388-20/results#endPointsSection). The sample size was calculated as follows: in a pilot cohort, the CD8 count in the biopsy taken at diagnosis, and in the resected tissue sample was quantified. […]

[2] = tested on: tumor-infiltrating TREG cells and CD8+ T cells in HNSCC tumor tissue; experiment: Phase II trial: tumor RNA-seq, sorted CD8+ T cell RNA-seq and FOXP3 immunohistochemistry, pre- vs post-treatment; assay type: in vivo, human
Description: Double blind, randomized clinical trial and sample collection. In order to explore the immunomodulatory effects of PI3Kδ inhibition in humans, the inventors conducted a multicenter, placebo-controlled phase II neoadjuvant trial with the PI3Kδi AMG319 in resectable HNSCC, www.clinicaltrialsregister.eu/ctr-search/trial/2014-004388-20/results). All patients have provided written informed consent for participation in the clinical trial. The inventors studied Human Papilloma Virus (HPV)-negative HNSCC, as this cancer type is more prevalent, and because patients with this cancer type have poorer outcomes when compared to HPV-positive HNSCC, likely due to overall lower tumor-infiltrating lymphocyte (TIL) infiltration^31-33. The clinical trial was sponsored by Cancer Research UK Center for Drug Development (CRUKD/15/004) and approved by the Southampton and South West Hampshire Research Ethics Board; the trial EudraCT number is 2014-004388-20. Detailed information about the trial design, randomization procedure, protocol amendments, recruitment data, patient characteristics and adverse events are deposited at www.clinicaltrialsregister.eu/ctr-search/trial/2014-004388-20/results #morelnformationSection and found in the CONSORT checklist. Patients were recruited after initial diagnosis and before definitive surgical treatment; drug treatment or placebo was given for up to 24 or 28 days respectively, prior to resection of tumor. […] The inventors reasoned that high-grade irAEs were unlikely to occur during the shorter treatment duration in the neoadjuvant setting, and therefore selected 400 mg/day as the starting dose. The intended time from initiating treatment with AMG319 or placebo to surgical resection of tumor was up to 4 weeks, with weekly blood draws. The full evaluation of radiological measurements has previously been reported at https://www.clinicaltrialsregister.eu/ctr-search/trial/2014-004388-20/results to the EU Clinical Trials Register in compliance with regulatory requirements. Primary endpoints were safety and assessment of CD8^+ immune infiltrates, secondary endpoints tumor responses and AMG319 pharmacokinetic evaluation (https://www.clinicaltrialsregister.eu/ctr-search/trial/2014-004388-20/results#endPointsSection). The sample size was calculated as follows: in a pilot cohort, the CD8 count in the biopsy taken at diagnosis, and in the resected tissue sample was quantified. The mean value at diagnosis was 25 cells/high power filed (hpf), and this remained almost the same in the resected sample (26 cells/hpf). […] To detect a standardized difference of 0.5 with 80% power and one-sided test of statistical significance of 20%, 36 patients were randomized to AMG319 and 18 to placebo (54 in total). Randomization was at the level of the individual patient, using block randomization with randomly varying block sizes. During the course of the clinical trial the randomization list was held by the unblinded Trial Statistician and within the IWRS. Patients and care providers were blinded to the treatment allocation, and all immunological evaluations were completed by a pathologist and researchers who were blinded to the patient allocation to treatment arms. […] Patients were eligible if they were >18 years, with histologically proven HNSCC for whom surgery was the primary treatment option, with laboratory results within specified ranges. […]

circulating TREG cells = experiment: Phase II trial: circulating TREG cells; set-up: species or system human; conditions: in vivo
Description: Double blind, randomized clinical trial and sample collection. In order to explore the immunomodulatory effects of PI3Kδ inhibition in humans, the inventors conducted a multicenter, placebo-controlled phase II neoadjuvant trial with the PI3Kδi AMG319 in resectable HNSCC, www.clinicaltrialsregister.eu/ctr-search/trial/2014-004388-20/results). All patients have provided written informed consent for participation in the clinical trial. The inventors studied Human Papilloma Virus (HPV)-negative HNSCC, as this cancer type is more prevalent, and because patients with this cancer type have poorer outcomes when compared to HPV-positive HNSCC, likely due to overall lower tumor-infiltrating lymphocyte (TIL) infiltration^31-33. The clinical trial was sponsored by Cancer Research UK Center for Drug Development (CRUKD/15/004) and approved by the Southampton and South West Hampshire Research Ethics Board; the trial EudraCT number is 2014-004388-20. […] The sample size was calculated as follows: in a pilot cohort, the CD8 count in the biopsy taken at diagnosis, and in the resected tissue sample was quantified. […]

[3] = tested on: heavily-pretreated patients with either CLL or non-Hodgkin lymphoma; conditions: cited from earlier work

C[C@H](Nc1ncnc2[nH]cnc12)c1cc2ccc(F)cc2nc1-c1ccccn1 [AMG319]
difference in measured tumor volumes between the study arms ([1]; 23 evaluable patients, AMG319 vs placebo): did not observe any significant differences | patients with partial responses (PR) ([1]; AMG319-treated, all also grade 3/4 irAEs): Two | patients with complete pathological response ([1]; AMG319-treated, also grade 3/4 irAEs): one | diarrhea observed in the treatment group ([1]; human, in vivo): 28% | median time to onset of irAEs ([1]; human, in vivo): 9 days | skin rashes observed in the treatment group ([1]; human, in vivo): 25% | transaminitis ([1]; human, in vivo): 14% | patients with grade 4 colitis, eventually required colectomy ([1]; in vivo): One | expression of IFNG, GZMB and PRF1 in sorted tumor-infiltrating CD8+ T cells ([2]; post-treatment samples, bulk RNA-seq): higher expression | differentially expressed genes, sorted CD8+ T cells ([2]; post-treatment vs remaining samples): 455 genes | FOXP3 transcript levels in the tumor samples ([2]; pre- vs post-treatment): significant reduction | differentially-expressed genes, whole tumor RNA-seq ([2]; pre- vs post-treatment tumor samples): 93 DEGs | intratumoral TREG cells (FOXP3+ cells, immunohistochemistry) ([2]; short interval between stopping treatment and assessment): significantly reduced | activated circulating TREG cells (circulating TREG cells): significant increase | nodal regression ([3]; daily dosing with 400 mg): > 50% | target inhibition (BCR-induced pAKT in ex vivo IgD-stimulated CLL samples) ([3]; daily dosing with 400 mg): near-complete target inhibition | maximally-tolerated dose ([3]; doses of up to 400 mg explored): without reaching a maximally-tolerated dose | mean half-life in plasma ([3]; human plasma): 3.8 to 6.6 h | occurrence of irAE at grade 3 or above (CTC) ([3]; in vivo): after days 40 and 60
